Two compounds from patent US20060127914A1 (priority 1999, published 2006) can be followed below.

For experiment [1], the target named is T1, α9 alone (homomeric α9 nAChR) (Homo sapiens, UniProt Q9UGM1, N442S).
T1 construct: expressed in transfected cells; host or cells: Xenopus laevis oocytes injected with cRNA made from cDNA in pSP64T.GL+
The experiment is described as follows: Two electrode voltage clamp recording in Xenopus oocytes injected with α9 alone. The experiment is classed as cell-based. The procedure:
(§1) 5 minutes washout time was allowed between each response. The data is corrected for run-up or run-down and expressed as a percentage of the maximum evoked current. Curves have been fitted using the non-linear curve fitting routine of Graph Pad. The fit is constrained to a lower bound of 0 while the upper bound is unconstrained. The correlation coefficients are R^2=0.9999 and 0.9980 for α9 and α9/α10, respectively.
(§2) Xenopus laevis females were purchased from Blades Biological, UK. The animals were maintained and dissected as described in Gould (1994) Membrane Protein and Expression Systems: a User's Guide Portland Press, London. Stage V or VI oocytes were de-folliculated by incubating with 0.2% collagenase (Sigma) in calcium-free Barth's solution on a vibrating platform set at 8 Hz for 2 hours at 18° C. Oocytes were then maintained in normal Barth's solution (containing 160 IU/ml penicillin and 74 IU/ml streptomycin). On the following day oocytes were injected with 1 to 25 ng cRNA using a Drummond Nanoject and left for at least three days before recording. cRNA was synthesised from cDNAs previously subcloned into the pSP64T.GL+ vector using the SP6 Message Machine Kit (Ambion).
(§3) Two electrode voltage clamp recording was carried out using a TURBO TEC-10CD (NPI Electronic GmbH, D-71732 Tamm, Germany). For current recording oocytes were placed in ND-96 Ringer (containing 96 mM NaCl, 1.8 mM CaCl2, 2 mM KCl, 1 mM MgCl2 and 5 mM HEPES (pH=7.4)) and impaled with two electrodes filled with 3 M KCl and 1 to 2 MΩ tip resistance. Recording were made in oocytes in which the membrane potential stabilised to potentials more negative than −20 mV during a 20 minute stabilisation period.
(§4) α10 nAChR function and pharmacology was investigated in Xenopus oocytes using two electrode voltage clamp techniques.
For orientation: Two-electrode voltage clamp holds a large cell at a set potential and records current.

Another experiment has as its target T2, α9/α10 combination (Homo sapiens, UniProt Q9GZZ6+Q9UGM1, N442S).
T2 construct: expressed in transfected cells; host or cells: Xenopus laevis oocytes injected with cRNA made from cDNAs in pSP64T.GL+
The experiment is described as follows: Two electrode voltage clamp recording in Xenopus oocytes injected with α9 plus α10. It is filed as cell-based. The procedure:
as §1, §2, §3, §4

[2] abbreviates: read-out: IC50 for inhibition of ACh-evoked response.

T2 sequence (Q9GZZ6 25-450): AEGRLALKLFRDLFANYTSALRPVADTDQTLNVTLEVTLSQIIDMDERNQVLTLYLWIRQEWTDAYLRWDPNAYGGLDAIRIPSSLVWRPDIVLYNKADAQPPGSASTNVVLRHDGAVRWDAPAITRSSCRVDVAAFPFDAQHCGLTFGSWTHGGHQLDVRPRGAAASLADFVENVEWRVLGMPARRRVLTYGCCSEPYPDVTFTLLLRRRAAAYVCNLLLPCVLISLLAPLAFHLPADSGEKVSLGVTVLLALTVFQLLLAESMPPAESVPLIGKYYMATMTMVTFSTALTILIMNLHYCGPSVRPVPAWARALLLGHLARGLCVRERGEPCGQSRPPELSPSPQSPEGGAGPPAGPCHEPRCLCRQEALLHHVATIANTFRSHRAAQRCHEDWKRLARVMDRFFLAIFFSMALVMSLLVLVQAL
T2 sequence (Q9UGM1 23-479 N442S): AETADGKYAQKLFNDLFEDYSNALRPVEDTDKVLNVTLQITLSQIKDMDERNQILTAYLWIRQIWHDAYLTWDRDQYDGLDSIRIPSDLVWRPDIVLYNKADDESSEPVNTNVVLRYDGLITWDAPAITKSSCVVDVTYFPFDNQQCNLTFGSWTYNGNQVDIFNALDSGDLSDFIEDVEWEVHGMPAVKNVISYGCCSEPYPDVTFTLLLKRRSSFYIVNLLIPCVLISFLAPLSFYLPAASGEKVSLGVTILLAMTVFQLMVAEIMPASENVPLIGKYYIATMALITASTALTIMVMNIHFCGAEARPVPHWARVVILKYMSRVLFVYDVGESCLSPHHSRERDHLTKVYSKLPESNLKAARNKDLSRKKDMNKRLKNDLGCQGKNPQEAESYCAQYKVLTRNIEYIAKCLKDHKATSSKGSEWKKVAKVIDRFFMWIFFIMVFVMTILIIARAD
T1 sequence (Q9UGM1 23-479 N442S): as above

For the compound `CC(=O)OCC[N+](C)(C)C` [ACh, acetylcholine], the “proportional increase in area-under-the curve for normalised responses” value in experiment [1] (30 s ACh application compared to 10 s application, α9 alone, N=2) came to 82%; at α9/α10 combination (30 s ACh application compared to 10 s application, α9/α10, N=2), 44%.

Consider α-bungarotoxin [α-Btx], for which the “Hill coefficient of inhibition curve” value is −1.25 in experiment [1] and −0.89 on α9/α10 combination. Moreover, the figures for the IC50 (in experiment [1] (setting [2]); on α9/α10 combination (setting [2])) were 2.7 nM and 3.7 nM, respectively.

As a reminder, the IC50 is the midpoint of a concentration-inhibition curve.
